Test results from patent US10329289B2, “6,7-dihydro-5H-pyrrolo[3,4-B]pyridin-5-one allosteric modulators of the M4 muscarinic acetylcholine receptor” (Merck Sharp & Dohme Corp., priority 2015, dated 2019).

biological target: T1, human M4 muscarinic acetylcholine receptor (Homo sapiens, UniProt P08173); test: human FLIPR-based M4 PAM assay (Ca2+ mobilization, CHO-K1 cells with human M4 receptor and Gαqi5); format: cell-based; conditions: acetylcholine at 20% of maximum response, read-out: M4 PAM IP
T1 construct: expressed in transfected cells; host or cells: CHO-K1
T1 sequence (P08173 1-479): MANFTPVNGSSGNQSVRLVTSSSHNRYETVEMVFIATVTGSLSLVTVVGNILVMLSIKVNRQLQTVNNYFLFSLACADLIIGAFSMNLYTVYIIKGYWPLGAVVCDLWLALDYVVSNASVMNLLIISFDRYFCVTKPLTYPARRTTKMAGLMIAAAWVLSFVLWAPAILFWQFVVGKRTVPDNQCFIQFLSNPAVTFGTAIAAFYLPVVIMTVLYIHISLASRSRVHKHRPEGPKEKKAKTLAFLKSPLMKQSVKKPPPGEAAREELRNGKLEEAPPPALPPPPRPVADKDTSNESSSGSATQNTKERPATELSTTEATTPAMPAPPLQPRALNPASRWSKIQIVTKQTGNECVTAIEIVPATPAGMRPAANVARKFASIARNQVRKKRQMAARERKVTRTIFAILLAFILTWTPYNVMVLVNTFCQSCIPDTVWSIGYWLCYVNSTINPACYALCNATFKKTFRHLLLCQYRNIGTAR
In short: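 Calcium-mobilization (FLIPR) readout in dye-loaded CHO-K1 cells co-expressing human M4 receptor and Gαqi5. Potentiation measured against acetylcholine at a concentration giving 20% of maximal response, with an optional 70% addition; the reported value is the curve inflection point from a 4-parameter logistic fit.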

Row | Compound | EC50
1 | Cc1cc2c(nc1N1CCC(Oc3ccc(O)nc3)CC1)CNC2=O [Example 326, 2-(4-((6-Hydroxypyridin-3-yl)ox)piperidin-1-yl)-3-methyl-6,7-dihydro-5H-pyrrolo[3,4-b]pyridin-5-one] | 1660 nM
2 | CCc1cc2c(nc1N1CCC(Oc3ccc4c(c3)CCOC4)CC1)CNC2=O [Example 200A, 3-ethyl-2-(4-(isochroman-6-yloxy)piperidin-1-yl)-6,7-dihydro-5H-pyrrolo[3,4-b]pyridin-5-one] | 58 nM
3 | CCc1cc2c(nc1N1CCC(OCC3(C)CC3)CC1)[C@H](CO)N(C)C2=O [Example 342, (R)-3-ethyl-7-(hydroxymethyl)-6-methyl-2-(4-((1-methylcyclopropyl)methoxy)piperidin-1-yl)-6,7-dihydro-5H-pyrrolo[3,4-b]pyridin-5-one] | 3440 nM
4 | COc1ccc(O[C@@H]2CCN(c3nc4c(cc3C)C(=O)N(C)[C@@H]4CO)C[C@H]2F)cn1 [Example 282A, (S)-2-((3R,4R)-3-fluoro-4-((6-methoxypyridin-3-yl)oxy)piperidin-1-yl)-7-(hydroxymethyl)-3,6-dimethyl-6,7-dihydro-5H-pyrrolo[3,4-b]pyridin-5-one] | 38 nM
5 | COc1ccc(OC2CCN(c3nc4c(cc3Cl)C(=O)NC4)CC2)cn1 [Example 327, 3-Chloro-2-(4-((6-methoxypyridin-3-yl)ox)piperidin-1-yl)-6,7-dihydro-5H-pyrrolo[3,4-b]pyridin-5-one] | 205 nM
6 | Cc1cc2c(nc1N1CCC(Oc3cnc4c(c3)CCO4)CC1)CNC2=O [Example 201A, 2-(4-((2,3-dihydrofuro[2,3-b]pyridin-5-yl)oxy)piperidin-1-yl)-3-methyl-6,7-dihydro-5H-pyrrolo[3,4-b]pyridin-5-one] | 68 nM
7 | Cc1cc2c(nc1N1[C@@H]3CC[C@H]1C[C@@H](Oc1cccc(C#N)c1)C3)CNC2=O [Example 95, 3-((endo-8-(3-methyl-5-oxo-6,7-dihydro-5H-pyrrolo[3,4-b]pyridin-2-yl)-8-azabicyclo[3.2.1]octan-3-yl)oxy)benzonitrile] | 616 nM
8 | COc1ccc(O[C@@H]2CCN(c3nc4c(cc3C)C(=O)NC4)C[C@H]2C)cn1 (single isomer, unassigned) [Example 2A] | 86 nM
9 | COc1ccc(O[C@H]2C[C@H]3CC[C@@H](C2)N3c2nc3c(cc2C)C(=O)NC3)cn1 [Example 97, 2-(endo-3-((6-methoxypyridin-3-yl)oxy)-8-azabicyclo[3.2.1]octan-8-yl)-3-methyl-6,7-dihydro-5H-pyrrolo[3,4-b]pyridin-5-one] | 800 nM
10 | Cc1c(N2CCC(OCC3(C)CC3)CC2)nc2c(c1C)C(=O)NC2 [Example 219, 3,4-dimethyl-2-(4-((1-methylcyclopropyl)methoxy)piperidin-1-yl)-6,7-dihydro-5H-pyrrolo[3,4-b]pyridin-5-one] | 25 nM
11 | Cc1cc2c(nc1N1CCC(Oc3ccc([C@@H](C)O)cc3)CC1)CNC2=O (single isomer, unassigned) [Example 150A] | 124 nM
12 | Cc1c(N2CC[C@@H](Oc3ccc4c(c3)COC4)[C@@H](F)C2)nc2c(c1C)C(=O)NC2 [Example 225, 2-((3S,4R)-4-((1,3-dihydro-2-benzofuran-5-yl)oxy)-3-fluoropiperidin-1-yl)-3,4-dimethyl-6,7-dihydro-5H-pyrrolo[3,4-b]pyridin-5-one] | 19 nM
13 | Cc1c(N2CCC(OC[C@@]3(C)CC3(F)F)CC2)nc2c(c1C)C(=O)N(CCO)C2 [Example 265B, (R)-2-(4-((2,2-difluoro-1-methylcyclopropyl)methoxy)piperidin-1-yl)-6-(2-hydroxyethyl)-3,4-dimethyl-6,7-dihydro-5H-pyrrolo[3,4-b]pyridin-5-one] | 123 nM
14 | Cc1cc2c(nc1N1CCC(OCC3(C)CC3)CC1)[C@H](CO)N(C)C2=O [Example 340, (R)-7-(hydroxymethyl)-3,6-dimethyl-2-(4-((1-methylcyclopropyl)methoxy)piperidin-1-yl)-6,7-dihydro-5H-pyrrolo[3,4-b]pyridin-5-one] | 2980 nM
15 | Cc1c(N2CCC(Oc3ccc(F)cc3)CC2)nc2c(c1C)C(=O)N(C)[C@@H]2CO [Example 353, (S)-2-(4-(4-fluorophenoxy)piperidin-1-yl)-7-(hydroxymethyl)-3,4,6-trimethyl-6,7-dihydro-5H-pyrrolo[3,4-b]pyridin-5-one] | 30 nM
16 | Cc1cc2c(nc1N1CCC(Oc3ccc4c(c3)C(C)(C)CO4)CC1)CNC2=O [Example 130, 2-(4-((3,3-dimethyl-2,3-dihydrobenzofuran-5-yl)oxy)piperidin-1-yl)-3-methyl-6,7-dihydro-5H-pyrrolo[3,4-b]pyridin-5-one] | 105 nM

Row | Compound | EC50
17 | Cc1cc2c(nc1N1CCC(Oc3ccc4c(c3)CCCN4C)CC1)CNC2=O [Example 291, 3-methyl-2-(4-((1-methyl-1,2,3,4-tetrahydroquinolin-6-yl)oxy)piperidin-1-yl)-6,7-dihydro-5H-pyrrolo[3,4-b]pyridin-5-one] | 204 nM
18 | COCc1ccc(OC2CCN(c3nc4c(cc3C)C(=O)NC4)CC2)cc1 [Example 195, 2-(4-(4-(methoxymethyl)phen-oxy)piperidin-1-yl)-3-methyl-6,7-dihydro-5H-pyrrolo[3,4-b]pyridin-5-one] | 68 nM
19 | Cc1cc2c(nc1N1CCC(Oc3ccc4c(c3)C(=O)CO4)CC1)CNC2=O [Example 139A, 3-methyl-2-(4-((3-oxo-2,3-dihydrobenzofuran-5-yl)oxy)piperidin-1-yl)-6,7-dihydro-5H-pyrrolo[3,4-b]pyridin-5-one] | 628 nM
20 | O=C1NCc2nc(N3CCC(Oc4ccc5c(c4)COC5)CC3)c(Br)cc21 [Example 226, 3-bromo-2-(4-((1,3-dihydro-2-benzofuran-5-yl)oxy)piperidin-1-yl)-6,7-dihydro-5H-pyrrolo[3,4-b]pyridin-5-one] | 136 nM
21 | COc1ccc(OC2CCN(c3nc4c(cc3C)C(=O)NC4(C)C)CC2)cn1 [Example 288, 2-(4-((6-Methoxypyridin-3-yl)ox)piperidin-1-yl)-3,7,7-trimethyl-6,7-dihydro-5H-pyrrolo[3,4-b]pyridin-5-one] | 1790 nM
22 | Cc1cc2c(nc1N1CCC(Oc3ccc4c(c3)CN(C)CC4)CC1)CNC2=O [Example 292, 3-methyl-2-(4-((2-methyl-1,2,3,4-tetrahydroisoquinolin-7-yl)oxy)piperidin-1-yl)-6,7-dihydro-5H-pyrrolo[3,4-b]pyridin-5-one] | 174 nM
23 | Cc1cc2c(nc1N1CCC(Oc3cnn(C)c3)CC1)CNC2=O [Example 206A, 3-methyl-2-(4-((1-methyl-1H-pyrazol-4-yl)oxy)piperidin-1-yl)-6,7-dihydro-5H-pyrrolo[3,4-b]pyridin-5-one] | 259 nM
24 | Cc1cc2c(nc1N1CC[C@@H](Oc3ccccc3)[C@@H](F)C1)CN(CCO)C2=O [Example 237, 2-((3S,4R)-3-fluoro-4-phenoxypiperidin-1-yl)-6-(2-hydroxyethyl)-3-methyl-6,7-dihydro-5H-pyrrolo[3,4-b]pyridin-5-one] | 68 nM
25 | COCCOC1CCN(c2nc3c(cc2C)C(=O)NC3)CC1 [Example 56, 2-(4-(2-methoxyethoxy)piperidin-1-yl)-3-methyl-6,7-dihydro-5H-pyrrolo[3,4-b]pyridin-5-one] | 11200 nM
26 | Cc1cc2c(nc1N1CCC(Oc3ccc4c(c3)OC(F)(F)O4)CC1)CNC2=O [Example 208, 2-(4-((2,2-difluorobenzo[d][1,3]dioxol-5-yl)oxy)piperidin-1-yl)-3-methyl-6,7-dihydro-5H-pyrrolo[3,4-b]pyridin-5-one] | 329 nM
27 | Cc1cc2c(nc1N1CCC(OCCC3(C)CC3)CC1)CNC2=O [Example 65A, 3-methyl-2-(4-(2-(1-methylcyclopropyl)ethoxy)piperidin-1-yl)-6,7-dihydro-5H-pyrrolo[3,4-b]pyridin-5-one] | 164 nM
28 | Cc1c(N2CC[C@@H](OCC3(C)CC3)[C@H](F)C2)nc2c(c1C)C(=O)NC2 [Example 174A, 2-((3R,4R)-3-fluoro-4-((1-methylcyclopropyl)meth-oxy)piperidin-1-yl)-3,4-dimethyl-6,7-dihydro-5H-pyrrolo[3,4-b]pyridin-5-one] | 22 nM
29 | Cc1cc2c(nc1N1CCC(Oc3ccc(OC4CCC4)nc3)CC1)CNC2=O [Example 37, 2-(4-((6-cyclobutoxypyridin-3-yl)oxy)piperidin-1-yl)-3-methyl-6,7-dihydro-5H-pyrrolo[3,4-b]pyridin-5-one] | 172 nM
30 | Cc1cc2c(nc1N1CCC(Oc3ccc4c(cnn4C)c3)CC1)[C@@H](CO)N(C)C2=O [Example 359, (S)-7-(hydroxymethyl)-3,6-dimethyl-2-(4-((1-methyl-1H-indazol-5-yl)oxy)piperidin-1-yl)-6,7-dihydro-5H-pyrrolo[3,4-b]pyridin-5-one] | 37 nM
31 | COc1ccc(O[C@@H]2CCN(c3nc4c(cc3C)C(=O)NC4)C[C@@H]2F)cn1 [Example 164, 2-((3S,4R)-3-fluoro-4-((6-methoxypyridin-3-yl)oxy)piperidin-1-yl)-3-methyl-6,7-dihydro-5H-pyrrolo[3,4-b]pyridin-5-one] | 82 nM
32 | Cc1cc2c(nc1N1CCC(Oc3ccccc3)CC1)CN(CCO)C2=O [Example 231, 6-(2-Hydroxyethyl)-3-methyl-2-(4-phenoxypiperidin-1-yl)-6,7-dihydro-5H-pyrrolo[3,4-b]pyridin-5-one] | 51 nM
